Laboratory results reported in patent publication EP1247803A2, “Indolinone compounds suitable for modulation of protein kinases” (Sugen, Inc., priority 1996, dated 1998).

Molecular target: T1, FLK-1 receptor (Mus musculus, UniProt P35918)
T1 construct: expressed in transfected cells; host or cells: NIH3T3 C7#3
Assay: FLK-1 ELISA (kinase activity of the FLK-1 receptor in FLK-1/NIH3T3 cells, VEGF stimulated)
Format: cell-based
Summary of the method: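 FLK-1-expressing NIH3T3 C7#3 cells, starved overnight in 0.1% FBS medium, were treated with compounds at a 1:200 final dilution (0.5% DMSO) for 2 h at 37 °C, with VEGF stimulation. FLK-1 kinase activity was read by ELISA on anti-rabbit IgG plates using affinity-purified anti-FLK-1 antiserum.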

T1 sequence (P35918 20-1345): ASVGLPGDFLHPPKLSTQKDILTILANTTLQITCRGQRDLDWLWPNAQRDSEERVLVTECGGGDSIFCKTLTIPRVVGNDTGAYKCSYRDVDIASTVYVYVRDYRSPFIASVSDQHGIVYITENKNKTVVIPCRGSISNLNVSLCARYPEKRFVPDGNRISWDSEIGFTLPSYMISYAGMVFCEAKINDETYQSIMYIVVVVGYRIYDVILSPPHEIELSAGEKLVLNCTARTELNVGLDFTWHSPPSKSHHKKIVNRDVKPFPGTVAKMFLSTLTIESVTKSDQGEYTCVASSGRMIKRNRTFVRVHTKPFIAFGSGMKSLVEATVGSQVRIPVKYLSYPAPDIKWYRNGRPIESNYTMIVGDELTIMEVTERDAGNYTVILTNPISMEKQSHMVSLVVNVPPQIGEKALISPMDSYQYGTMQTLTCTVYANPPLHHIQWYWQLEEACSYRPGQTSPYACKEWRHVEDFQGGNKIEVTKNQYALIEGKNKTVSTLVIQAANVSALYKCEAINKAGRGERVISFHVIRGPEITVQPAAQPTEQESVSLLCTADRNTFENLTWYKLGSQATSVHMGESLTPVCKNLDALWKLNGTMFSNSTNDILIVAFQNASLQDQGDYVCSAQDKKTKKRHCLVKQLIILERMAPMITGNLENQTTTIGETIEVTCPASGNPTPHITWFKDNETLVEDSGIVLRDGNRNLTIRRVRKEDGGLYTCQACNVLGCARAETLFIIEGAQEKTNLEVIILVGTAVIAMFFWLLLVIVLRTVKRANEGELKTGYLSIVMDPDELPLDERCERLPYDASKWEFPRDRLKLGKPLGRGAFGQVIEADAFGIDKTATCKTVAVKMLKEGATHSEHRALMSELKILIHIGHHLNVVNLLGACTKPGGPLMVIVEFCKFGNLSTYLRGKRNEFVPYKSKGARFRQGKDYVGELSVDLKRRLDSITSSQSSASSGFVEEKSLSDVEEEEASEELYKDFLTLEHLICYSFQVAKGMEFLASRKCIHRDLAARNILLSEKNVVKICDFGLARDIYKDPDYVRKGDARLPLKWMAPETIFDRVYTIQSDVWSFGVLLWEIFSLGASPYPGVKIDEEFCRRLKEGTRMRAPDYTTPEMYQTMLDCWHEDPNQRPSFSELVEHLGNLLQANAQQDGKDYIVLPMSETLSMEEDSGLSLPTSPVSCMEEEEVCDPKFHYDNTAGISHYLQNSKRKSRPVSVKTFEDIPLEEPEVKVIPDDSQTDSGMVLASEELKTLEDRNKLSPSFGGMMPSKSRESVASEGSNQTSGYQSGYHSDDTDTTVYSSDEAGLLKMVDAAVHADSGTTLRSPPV

SMILES | Fik Kinase %Inhibition [%]
COc1cc(N(C)C)ccc1C=C1C(=O)Nc2c(Br)cc(Br)cc21 [10728/A05] | -10.8
O=C1Nc2ccc(CCCl)cc2C1=Cc1cc2c(cc1Cl)OCO2 [10727/G06] | 2.9
CNS(=O)(=O)c1ccc2c(c1)C(=Cc1cc(O)ccc1O)C(=O)N2 [10727/D10] | 11.4
O=C1Nc2ccc(I)cc2C1=Cc1cc(C(F)(F)F)ccc1F [10728/B08] | 14.8
O=C1Nc2ccc(CCCl)cc2C1=Cc1ccccc1Sc1ccc(Cl)cc1 [10727/G05] | 8.0
CNS(=O)(=O)c1ccc2c(c1)C(=Cc1cc(Cl)cc(Br)c1O)C(=O)N2 [10727/D04] | 25.9
CCN(CC)c1ccc(C=C2C(=O)Nc3ccc(S(=O)(=O)N4CCOCC4)cc32)cc1 [10727/F02] | 15.9
COc1ccc(OC)c(C=C2C(=O)Nc3c(Br)cc(Br)cc32)c1 [10728/A02] | -12.3
O=C(O)COc1ccccc1C=C1C(=O)Nc2ccc(I)cc21 [10728/B10] | 3.9
O=C1Nc2c(Br)cc(Br)cc2C1=Cc1ccc(Cl)c([N+](=O)[O-])c1 [10718/A08] | 3.2
COc1cccc(C=C2C(=O)Nc3ccc(CCCl)cc32)c1OC [10727/G11] | 6.9
CNS(=O)(=O)c1ccc2c(c1)C(=Cc1ccc(N(C)C)cc1OC)C(=O)N2 [10728/D05] | 4.9
COC(=O)c1[nH]c(C)c(C=C2C(=O)Nc3c(Br)cc(Br)cc32)c1C(=O)OC [10718/A07] | 16.2
CNS(=O)(=O)c1ccc2c(c1)C(=Cc1cc(OC)cc(OC)c1)C(=O)N2 [10728/D04] | 6.8
COc1cccc(OC)c1C=C1C(=O)Nc2ccc(Br)c(C)c21 [10728/C03] | 10.5
Cc1c(Br)ccc2c1C(=Cc1c(F)cccc1C(F)(F)F)C(=O)N2 [10728/C09] | 14.5

SMILES | Fik Kinase %Inhibition [%]
CNS(=O)(=O)c1ccc2c(c1)C(=Cc1ccc(C#N)cc1)C(=O)N2 [10727/D09] | 8.2
CCc1cc(CC)c(C=C2C(=O)Nc3ccc(S(=O)(=O)Nc4ccc(C(F)(F)F)cc4)cc32)[nH]1 [10727/E03] | 11.1
COc1ccc(OC)c(C=C2C(=O)Nc3ccc(I)cc32)c1 [10728/B02] | -11.1
O=C1Nc2c(Br)cc(Br)cc2C1=Cc1cccc(C(F)(F)F)c1F [10728/A07] | -21.6
COc1cccc(C=C2C(=O)Nc3ccc(S(=O)(=O)N4CCOCC4)cc32)c1OC [10727/F11] | 17.3
N#Cc1cccc(C=C2C(=O)Nc3ccc(S(=O)(=O)Nc4ccc(C(F)(F)F)cc4)cc32)c1 [10727/E08] | 14.2
CCOC(=O)c1cc(C=C2C(=O)Nc3c(Br)cc(Br)cc32)oc1C [10718/A06] | 7.8
O=C1Nc2c(Br)cc(Br)cc2C1=Cc1c(F)cccc1C(F)(F)F [10728/A09] | -5.5
CNS(=O)(=O)c1ccc2c(c1)C(=Cc1coc3ccccc3c1=O)C(=O)N2 [10727/D07] | 19.7
COc1cc(Br)c(O)c(C=C2C(=O)Nc3c(Br)cc(Br)cc32)c1 [10718/A03] | 7.6
O=C1Nc2ccc(CCCl)cc2C1=Cc1cc(Cl)cc(Br)c1O [10727/G04] | 27.2
CNS(=O)(=O)c1ccc2c(c1)C(=Cc1c(OC)cccc1OC)C(=O)N2 [10728/D03] | 10.2
O=C1Nc2c(Br)cc(Br)cc2C1=Cc1ccc2c(c1)Cc1ccccc1-2 [10728/A06] | -10.4
N#Cc1ccc(C=C2C(=O)Nc3ccc(S(=O)(=O)N4CCOCC4)cc32)cc1 [10727/F09] | -45.2
CNS(=O)(=O)c1ccc2c(c1)C(=Cc1cc3c(cc1Cl)OCO3)C(=O)N2 [10727/D06] | 13.1
COc1cc(C=C2C(=O)Nc3c(Br)cc(Br)cc32)cc2c1OCO2 [10728/A11] | -2.3
